Measured values published in US4162325A, “N-substituted lactams” (UCB, Societe Anonyme, priority 1976, dated 1979).
“And” between values parts separate entries of the source, which are not always exact repeats. Equal values may be shown once.

Key:
[1] = test system: rats; experiment: active avoidance test, memory retention (paw pressure withdrawal) in rats; type: in vivo, rat; settings: Rattus norvegicus, sc, 24 h, read-out: Active dose (minimum dose which reduces the stimulus to below 11 graduations)
Source text: (A) The action on mnemic processes is first shown by the ability of the compounds to improve a type of memory retention in rats. The principle of the active avoidance test (see M. GREINDL and S. PREAT, Arch. Int. Pharmacodyn. Therap. 223,(1976),(1),168-171) developed in our laboratories and used for this purpose may be described as follows: the reaction of withdrawal of a rat's paw when subjected to an increasing and measured pressure is observed. The pressure at which the withdrawal reaction takes place is called the reaction threshold. This threshold is expressed by the number of graduations of the scale of the apparatus used (Analgesy meter UGO BASILE - Milano) and thus corresponds to the minimum pressure which brings about withdrawal when applied to the animal's paw. It is read directly from the scale of the apparatus used.
Inversely, animals treated with a substance having a positive effect on the mnemic processes (for example, piracetam) show a significant degree of retention: the stimulus at which the rats react by a reflex of avoidance is statistically lower than that of the control animals. A minimum of 20 rats are used per test (10 treated rats and 10 control rats) and the active dose is defined as the minimum dose which reduces the stimulus to below 11 graduations.
Subcutaneous administration of compounds of general formula (I), namely compounds A, G, H, I, J, K, L, N, O, P, Q, R, V, W, give, under these conditions, the effects indicated in Table I below.

[2] = test system: mice; experiment: protection against aggressions of the hypoxic type (lethality induced by oxydipentonium chloride) in mice; type: in vivo; settings: ip, 1 h, mouse, intraperitoneal, one hour before curarizer, read-out: Proportion of survivors, treated animals
Experimental: Protection against aggressions of the hypoxic type is shown by a reduction of the lethality induced by a curarizer, the duration of action of which is short, namely oxydipentonium chloride (Brevatonal). At the doses used, this curarizer brings about a respiratory depression which, in turn, brings about a hypoxi-hypercapnic syndrome. A compound capable of protecting the brain during this brief period of hypoxia ensures survival. The compounds are administered to groups of 10 mice one hour before the injection of the curarizer; in a parallel test, a control group of 10 mice are given physiological salt solution before the curarizer. This test has also been developed in our laboratories (see, for the principle of this test, S. LEVIS et al.; Arch. Int. Pharmacodyn. Therap, 93,(1953),1,46-54).
Intraperitoneal administration of compounds of general formula (I), namely, products A, B, F, G, H, I, J, K, L, gives the results shown in Table III: […]

[3] = test system: rat; settings: 30 mg/kg (0.2 mM/kg), Giurgea et al., loc.cit.; cited from earlier work

For NC(=O)CN1CCCC1=O [Piracetam, 2-oxo-1-pyrrolidineacetamide, reference compound], the minimal effective dose [1] was 3.5 mg/kg and 25 µmol/kg, the responders at 320 µM, 45 mg/kg ([2]; 0.32 mM/kg (A 64, I 95, J 68, Piracetam 45 mg/kg), control 1/10, Piracetam 0/10) was 10% and the responders at 1000 µM, 142 mg/kg ([2]; 1.0 mM/kg (Piracetam 142 mg/kg), control 2/10) was 40%. For the same compound, the responders at 3200 µM, 454 mg/kg ([2]; 3.2 mM/kg (Piracetam 454 mg/kg), control 1/10) was 80% and the “Number of animals which responded positively / number tested” value [3] was 4/9.
